Structures can show the parent of a compound that is named as a salt. Where two headings read alike, the source gives them in different places.
Legend:
[1] = test system: Rats, left carotid artery thrombosis (FeCl3); experiment: In vivo antithrombotic effect, FeCl3 carotid artery thrombosis; parameters: species or system rat; settings: single oral dose of 100 mg/Kg; no occlusion during 60 min after FeCl3 patch
Protocol: The method used is substantially the same as described by Kurz (Kurz K. D., et al., Thromb. Res. 1990, 60:269-280) and modified by Feuerstein (Feuerstein G. Z., et al., Artherioscler. Thromb. Vase. Biol. 1999, 19: 2554-25562).
Rats received a single oral dose of 100 mg/Kg of the compounds.
Forty-five minutes after dosing rats were anaesthetized with sodium pentobarbital (40 mg/kg, i.p.) and they were placed later dorsally on a heated (37° C.) surgical board.
The left carotid artery was isolated and a Parafilm 4 sheet (7×20 mm, American National Can) was placed under it. An electromagnetic sounding of flow (Transonic Systems Inc.) was placed on the artery to measure blood flow.
(§1) Sixty minutes after product administration, a paper patch saturated with FeCl3 solution (70%) was placed (and not removed for the whole duration of the experiment) on the left carotid artery downstream from the sounding of flow to initiate thrombosis. The blood flow was controlled during the 60 min later to the application of the patch in the artery.
The vessel was considered totally occluded by the thrombus formed when no blood flow was detected (0.0 ml/min). In this model, thrombus formation usually takes place within 15 to 20 minutes in non-treated animals.

[2] = test system: arterial rings; experiment: Test of vasorelaxation on arterial rings contracted with phenylephrine; type: cell-based; settings: read-out: EC50 (vasodilatation equal to 50% of the maximum tone)
Protocol: The method used in the assays is substantially the same as described in following references: • * Furchgot, R. F., “Methods in nitric oxide research”; Feelisch & Stamler, eds., John Wiley & Sons, Chichester, England, pp 567-581. • * Trongvanbichnam K., et al., Jpn. J. Pharmacol. 71 (1996); 167-173. • * Sales, E., at al., Eur. J. Pharmacol. 258 (1994); 47-55.
The different compounds are tested at 5 different concentrations, at a concentration range from 0.0001 to 10 mM, using from 6 to 9 arterial rings for each compound. The obtained results are compared to those from the isosorbide 5-mononitrate, which is used as reference product.
The results are shown in table 1 below and are provided as EC50 (effective concentration 50), which is the concentration of each of the tested, compounds yielding a vasodilatation equal to 50% of the maximum tone at which the artery ring has been contracted with 1 μM of Phenylephrine.

[3] = test system: platelets (Human Platelet Rich Plasma); experiment: In vitro inhibition of ADP-induced platelet aggregation; type: cell-based; settings: submaximal ADP (1-4 μM), mean ± s.d.
Protocol: The method used in the assays is substantially the same as described in following reference: • * Sales, E., at al., Br. J. Pharmacol. 112 (1994); 1071-1076.
The compounds are tested at four different concentrations, using platelet rich plasma from not less than 6 different healthy human donors. The results obtained are compared to those from 5-isosorbide mononitrate, which is used as reference product.
The results are shown in table 2 and are expressed as IC50 (inhibitory concentration 50), which is the concentration of each of the tested compounds yielding an inhibition equal to 50% of the aggregation obtained with a submaximal concentration (1-4 μM) of ADP (a submaximal concentration of ADP is the minimal amount of ADP which produces the maximal aggregation).

[4] = test system: HUVEC cells; experiment: In vitro protection against cytotoxicity induced by oxygen radicals (peroxynitrite), XTT method; type: cell-based, human; settings: HUVEC pre-treated with 50 μM compound for one hour, then 800 μM peroxynitrite overnight
Excerpt: The method used is substantially the same as described by Caveda L., et al. (J. Clin. Invest. […]; 98: 886-893).
For the determination of the capacity to inhibit the cytotoxicity induced by oxygen radicals Human Umbilical Vein Endothelial Cells (HUVEC) were used. HUVEC were isolated and cultured in M199 and 20% FCS (Fetal Calf Serum).
Test XTT assay is based on […] by the metabolically active cells of the salt of tetrazolio XTT to form an orange product, the formazan dye formed is soluble and is directly quantified using an spectrophotometer.
HUVEC cells were cultivated until a sub-confluence status in a 96 well tissue culture plate and pre-treated with 50 μM of the compound for one hour. After that, cells were treated with 800 μM of peroxynitrite for an overnight.
After overnight incubation cells were incubated with the yellow XTT solution (final concentration 0.3 mg/ml) for 4 hours. After this incubation period, orange formazan solution was formed, which was spectrophotometrically quantified using an ELISA plate reader at 450 nm
The results are shown in table 15 and are expressed as percentage of death cells.

[5] = test system: heart (AVP-induced coronary vasoconstriction); experiment: In vivo protection against ischemia-reperfusion damage in the heart (arginine-vasopressin induced S-wave depression); settings: p.o.; for S-wave decrement: 1 h before AVP 0.3 U/kg, vehicle 46.2 ± 4.9
Protocol: Experiments were performed according to the model previously described by Hirata Y at al (Journal of Cardiovascular Pharmacology, 1998, 31: 322-326)
After a food fasting period of 6 hours, animals were divided into groups of at least 8 animals each. Doses of products were given by oral sounding 1 h before the ischemia induction. Animals were anaesthetized with pentobarbital (40 mg/kg, i.p.) and the standard limb lead II electrocardiogram was recorded to detect the S-wave depression. 0.3 U/kg arginine-vasopressin (AVP) (Sigma Chemicals, St Louis, Mo., USA) was injected into the carotid artery to induce vasoconstriction of small coronary arteries and increase in coronary resistance. In all the groups received AVP 60 min after, the test drug. In all groups, after AVP injection of 10 minutes ECG recording was performed.
The results are shown in table 16 and are expressed as S-wave decrements (μvolts).

[6] = test system: Rats, left carotid artery thrombosis (FeCl3); experiment: In vivo synergistic antithrombotic effect, FeCl3 carotid artery thrombosis, single drugs and combinations; parameters: species or system rat; settings: for Rate of animals with thrombotic occlusion: control 1
Protocol: The method used is substantially the same as described by Kurz (Kurz K. D., at al., Thromb. Res. 1990, 60: 269-280) and modified by Feuerstein (Feuerstein G. Z., et al., Artherioscler, Thromb. Vasc. Biol. 1999, 19: 2554-25562). […]
Forty-five minutes after dosing administration, rats were anaesthetized with sodium pentobarbital (40 mg/kg, i.p.) and they were placed later dorsally on a heated (37° C.) surgical board.
The left carotid artery was isolated and a Parafilm M sheet (7×20 mm, American National Can) was placed under it. An electromagnetic sounding of flow (Transonic Systems Inc.) was placed on the artery to measure blood flow.
as §1
The vessel was considered totally occluded by the thrombus formed when no blood flow was detected (0.0 ml/min). In this model, occlusive thrombus formation usually takes place within 15 to 20 minutes in non-treated animals.
The fractional product concept was used to identify synergy between the compounds. In accordance with this concept, if we consider the full protection of the animal as:
[formula] where A is the rate of animals with thrombotic occlusion in treated group; and B is the rate of animals with thrombotic occlusion in the control group.
For two drugs that act of independent way:
[formula] where A1 is the rate of animals with thrombotic occlusion in the treatment group A1; A2 is the rate of animals with thrombotic occlusion in the treatment group A2; and B is the rate of animals with thrombotic occlusion in the control group
If the protection obtained with the combination of the drugs is higher than the fractional inhibition for two compounds acting independently then synergism is considered to occur.
The results are shown in table 14 and are expressed as rate of animals with thrombotic occlusion in each group.

[7] = test system: LDL; experiment: Inhibition of LDL oxidation induced by haemin and H2O2 (conjugated dienes, 234 nm); type: biochemical, human; settings: compounds at 10 μM; 2.5 μM haemin and 5 μM H2O2; mean ± s.e.m.
Excerpt: The method used in the assays to determine the effect of the compounds on LDL oxidation is substantially the same as described in the following references: • Sprenger T., et al., Chem. Phys. Lipids 1998; 91:39-52 • Lynch S. M., et al., Biochim. Biophys. Acta 2000; 1485:11-22 • Pedreño J., et al., Thromb. Res. 2000; 99: 51-60.
The method used in the assays to isolate LDL particles from fresh human plasma is substantially the same as described in Pedreño J., et al., Atherosclerosis 2001; 155: 99-112.
Oxidative modification of low-density lipoprotein (LDL) is currently believed to be a central event it the development of atherosclerotic cardiovascular disease. The exposition of LDL to globin-free haemin (the complex of ferric ion (Fe^3+) with protoporphyrin IX), derived from the haemoglobin in circulating erythrocytes, serves as a physiological source of pro-oxidant Fe^3+ capable to promoting LDL oxidation. The compounds were added in vitro to determine their inhibitory activity on LDL oxidation induced by haemin and H2O2. LDL at a final protein concentration of 0.2 mg/ml was incubated in the presence of 2.5 μM haemin and 5 μM H202. Oxidative modification of LDL particles was assessed by measurement of conjugated dienes. Experimental samples were incubated at 37° C. and the increase in absorbance at 234 nm was automatically recorded every 5 min for at least 5 h. The effect of compounds on the LDL oxidation induced by haemin was tested at 7 different concentrations using LDL preparations from 7 different healthy donors.

[8] = test system: heparinized plasma (plasma lipoproteins); experiment: Inhibition of plasma oxidation induced by Cu2+ (absorbance 234 nm); type: biochemical; settings: compounds at 10 μM; 50 μM CuSO4; mean ± s.e.m.
Protocol: The method used in the assays to determine the effect of compounds on the capacity of oxidation of the plasma is substantially the same as described in Spranger T. et al., Chem Phys Lipids 1998; 91: 39-52.
Lipoprotein oxidation induced in vitro in plasma is expected to represent a relevant model of the lipoprotein oxidation in the arterial wall. Oxidation of plasma lipoproteins was assessed as the capacity of oxidation of heparinized plasma and was measured by spectrophotometry as in increase in absorbance at 234 nm. The compounds were added in vitro to determine their inhibitory activity over the capacity of oxidation of plasma induced by Cu^2+ (CuSO4). Heparinized plasma was diluted with phosphate-buffered saline solution (PBS) containing 0.16 M NaCl, and the oxidation was started by 50 μM CuSO4. Experimental samples were incubated at 37° C. and the increase in absorbance at 234 nm was automatically recorded every 15 min for at least 12 h. The effect of compounds over the capacity of oxidation of plasma induced by Cu^2+ was tested at 7 different concentrations using heparinizaded plasma from 7 different healthy donors.

[9] = artery ring contracted with 1 μM Phenylephrine, mean ± s.d.
[10] = Clopidogrel 1.5 mg/Kg/day, oral for 3 days
[11] = Acetyl salicylic acid 100 mg/Kg/day, oral, for 3 days

C[S@@+]([O-])[C@H]1CO[C@H]2[C@@H]1OC[C@H]2O[N+](=O)[O-] (as salt: nitrate) [(4), 2-[(R)-methylsulfinyl]isosorbide 5-mononitrate]
melting point: 115 °C

CS[C@H]1CO[C@H]2[C@@H]1OC[C@H]2O[N+](=O)[O-] [(3), 2-methylthioisosorbide 5-mononitrate]
% of animals fully protected [1]: 100% | EC50 [2, 9]: 43 ± 6 µM | IC50 [3]: 410 ± 90 µM | % of death cells [4]: 80%

C[S@+]([O-])[C@H]1CO[C@H]2[C@@H]1OC[C@H]2O[N+](=O)[O-] [(4bis), 2-[(S)-methylsulfinyl]isosorbide 5-mononitrate]
IC50 [3]: 850 ± 150 µM

2-thioisosorbide [(9)]
Protection of S-wave decrement ([5]; 20 mg/kg): 64% | S-wave decrement ([5]; 20 mg/kg): 16.5 ± 9.8 μV | Protection of S-wave decrement ([5]; 100 mg/kg): 79% | S-wave decrement ([5]; 100 mg/kg): 9.7 ± 4.6 μV | EC50 [2, 9]: 24 ± 5 µM

COC(=O)[C@H](c1ccccc1Cl)N1CCc2sccc2C1 [Clopidogrel]
% of animals protected [6, 10]: (50%) | Rate of animals with thrombotic occlusion [6, 10]: 0.50

O=[N+]([O-])O[C@@H]1CO[C@H]2[C@@H]1OC[C@@H]2O [Isosorbide 5-mononitrate, reference compound]
EC50 [2, 9]: 920 ± 200 µM | % of increment of lag phase with respect to control (LDL oxidation) [7]: 0% | IC50 [3]: 2680 ± 330 µM | % of increment of lag phase with respect to control (plasma oxidation) [8]: 0%

O=NS[C@H]1CO[C@H]2[C@@H]1OC[C@H]2O[N+](=O)[O-] [(6), S-nitroso-2-thioisosorbide 5-mononitrate]
EC50 [2, 9]: 1.2 ± 0.1 µM | IC50 [3]: 1.9 ± 0.5 µM

O=[N+]([O-])O[C@@H]1CO[C@H]2[C@@H]1OC[C@@H]2SS[C@H]1CO[C@H]2[C@@H]1OC[C@H]2O[N+](=O)[O-] [(2), 5,5′-dinitrato-2,2′-dithiodiisosorbide]
EC50 [2]: 5.3 ± 1 µM | IC50 [3]: 10 ± 7 µM | % of increment of lag phase with respect to control (plasma oxidation) [8]: 7 ± 1% | % of death cells [4]: 80%

O=[N+]([O-])O[C@@H]1CO[C@H]2[C@@H]1OC[C@@H]2SC1CCCCO1 (stereo partly shown) [(7), 2-(tetrahydropyran-2-yl-thio)isosorbide 5-mononitrate]
EC50 [2, 9]: 50 ± 9 µM | IC50 [3]: 580 ± 21 µM

C[S@@+]([O-])[C@H]1CO[C@H]2[C@@H]1OC[C@H]2O[N+](=O)[O-] [(4), 2-[(R)-methylsulfinyl]isosorbide 5-mononitrate]
Protection of S-wave decrement ([5]; 20 mg/kg): 21% | S-wave decrement ([5]; 20 mg/kg): 36.5 ± 11.6 μV | Protection of S-wave decrement ([5]; 100 mg/kg): 87% | S-wave decrement ([5]; 100 mg/kg): 5.9 ± 3.9 μV | % of animals fully protected [1]: 80% | EC50 [2, 9]: 338 ± 10 µM | IC50 [3]: 1000 ± 10 µM

CC(=O)Oc1ccccc1C(=O)O [Acetyl salicylic acid]
% of animals protected [6, 11]: (50%) | Rate of animals with thrombotic occlusion [6, 11]: 0.50
